Assay results: US10155802B2, “Locally-active anticoagulants and anti-inflammatory agents” (priority 2011, dated 2018)
pEC50, pIC50: −log10 of the molar value. Like-named read-outs stand apart in the source and are kept apart here. No end group written: not given here.

Key:
pooled human plasma [1] = experiment: Activated partial thromboplastin time (APTT) clotting assay; assay type: biochemical; settings: 37° C.; concentration for 50% of maximum delay in clotting time; read-out: MTC50 (APTT)
Experimental: (§1) Prothrombin (clotting) time (PT) or activated partial thromboplastin (clotting) time (APTT) assays were carried out at certain concentrations of the thrombin inhibitors of the present invention using pooled human plasma with addition of thromboplastin or activated partial thromboplastin to initiate clotting. The assays employed kits from Biopool International (Ventura, Calif., USA) or from Pacific Haemostasis (Middletown, Va., USA) using the procedures supplied by the manufacturer. Briefly, the stock solution of an inhibitor (with the concentration determined using UV-based OD determination, see Gill 1989) is diluted in a buffer of 20 mM HEPES and 150 mM NaCl at pH 7.4 (HBS) to a final volume of 50 μL, to which is added the reconstituted normal plasma (Product #CMS-176172 from Fisher Scientific) in an equal volume. This solution mixture is equilibrated at 37° C. for 2 minutes before 50 μL of the APTT-10XL solution (CMS-022927) is introduced forcibly to ensure proper mixing. This new mixture was incubated at 37° C. for another 5 minutes, which is followed by the addition of 50 μL of 0.02 M […] (Fisher Scientific CMS-022925) pre-warmed at 37° C. For the prothrombin time (PT) assay, an inhibitor is diluted in HBS to a final volume of 25 μL, to which is added the reconstituted control plasma (Fisher Scientific CMS-176172) in an equal volume. This solution mixture is equilibrated at 37° C. for 5 minutes before addition of 100 μL of the thromboplastin solution (CMS-176099) pre-warmed at 37° C. For APTT assays, inhibitory activities of the peptides are expressed as concentrations needed to achieve 50% of the maximum delay in clotting time (MCT50) as compared to the absence of thrombin inhibitors (Maraganore 1989). For PT assays, inhibitory activities are measured as the concentrations of the peptides that prolong the clotting time by 50% (IC50) of that of the normal control plasma (Maraganore 1990). PT and APTT assays were also carried out using slightly modified experimental procedures. Thus, 50 μL of a control plasma (Pacific Hemostasis) solution was added to 100 μL HBS (20 mM HEPES and 150 mM NaCl at pH 7.4) containing varied concentrations of the peptides of this invention. After incubation at 37° C. for 5 min, the mixture was added to 50 μL of the thromboplastin or activated partial thromboplastin reagent. Clotting of the plasma was monitored by change in absorbance at 420 nm using a SpectraMax™ plate reader.

thrombin = thrombin (Homo sapiens, UniProt P00734); experiment: Fibrinogen clotting assay (concentration needed to double the clotting time = IC50); assay type: biochemical; settings: IC50 (anti-clotting), T = 37° C.
Experimental: The same enzyme kinetic assays were used to determine the inhibitory activities of MH2 and two MH2-derived peptides, MH2-allGS and MH2-GS (Table 4). Clotting assays were carried out to determine the inhibitory activities of the rest of the MH2 peptides by use of the protocols described previously (DiMaio 1990; Taka 2000; Su 2004). The assay employs bovine plasma fibrinogen dissolved at 0.1% in 50 mM Tris-Cl, 100 mM NaCl, 0.1% PEG-8000 at pH 7.6 (i.e. the clotting buffer). In addition to the use of optical densities or ODs (Gill 1989), concentrations of the peptide stock solutions were ranked (and corrected when necessary) by use of quantitative proton NMR spectroscopy (Cavaluzzi 2002). Each assay mixture contained a certain concentration of the peptide, and the reaction was started by the addition of human thrombin to a final concentration of approximately 0.5 nM. Optical absorbance of the assay mixtures was measured at 420 nm using the Spectramax™ plate reader. The onset clotting time was determined as an intersection of the baseline and the tangent line at point of inflection of the clotting curve. The concentration of an MH2 peptide needed to double the clotting time was defined as IC50 (DiMaio 1990) as illustrated in FIG. 4 and summarized in Table 4. The correlation between IC50 values and linker unfolding is similar to that for the BTI series of inhibitors (Table 3). […] (Table 3).

[2] = test system: FeCl3-induced venous thrombosis (vena cava); experiment: FeCl3-induced venous model of thrombosis in rats (thrombus weight); assay type: in vivo; settings: rat, single-bolus injection via tail vein
Experimental: Male Sprague-Dawley rats (250-310 g; Charles River Laboratories, St-Constant, QC, Canada) were acclimated for at least 3 days prior to the start of the study. Animals were housed in microisolator cages and were kept on a 12-hr light/dark cycle with constant temperature and humidity. Food and water were provided ad libitum. Various anti-thrombotic agents and peptides of this invention were dissolved in saline (0.9% sodium chloride) prior to use.
The FeCl3-induced venous model of thrombosis in rats was generated as described by Wang and Xu (Wang 2005) with some modifications (Couture 2011). Briefly, rats were anesthetized with a 2.5% isoflurane/oxygen mixture and placed on a heat source (35-37° C.). The vena cava was then exposed via a midline incision and the region between the renal and iliolumbar veins was isolated. […]
Protein content of the thrombus was also measured according to protocol by Wang (Wang 2005). […] Contents of amino acids and small peptides were measured at OD280 with digestion buffer used as a blank.
Statistical analysis was conducted using GraphPad™ Prism (GraphPad Software Inc., San Diego Calif., USA). Data were analyzed using one-way ANOVA with post-hoc Bonferroni correction for multiple comparisons. The relationship between thrombus weight and thrombus volume was determined by linear regression. […]

[3] = test system: fresh blood withdrawn from rats with venous thrombosis; experiment: Clotting time (aPTT) of fresh blood withdrawn from treated rats; assay type: in vivo; settings: rat, 0.2 mg/kg bolus + 0.00433 mg/kg/min infusion; 20 minutes after administration versus before
Experimental: FIG. 23 illustrates the clotting times (aPTT) determined for fresh blood withdrawn from rats with venous thrombosis at three time points, the first before drug administration and vessel injury, the second at 20 minutes after FeCl3 application and the third 60 minutes following injection of the respective thrombin inhibitors. Clotting times (aPTT) are shown for different rats administered with each thrombin inhibitor, ZIP4 for MH2-wZIP4, ZIP5 for MH2-wZIP5 and T218 for BRI-T218. Dosage levels for every compound were 0.2 mg/kg for the single-bolus injection and 0.00433 mg/kg/min for the maintenance infusion,
Terminal blood samples were analyzed for aPTT within 15 to 30 minutes of collection using a Coag DX Analyzer with aPTT citrate cartridges (IDEXX Laboratories, Westbrook, Me., USA).

pooled human plasma [4] = experiment: Prothrombin time (PT, thromboplastin) clotting assay; assay type: biochemical
Experimental: as §1

[5] = estimated (Cochran 2001), cited from earlier work
rat-tail collagen type I = biological target: T1, rat-tail collagen type I (Rattus norvegicus, UniProt P02454+P02466); experiment: Peptide-collagen binding by reduction of collagen fibril alignment (deuterium coupling constant); settings: collagen gelation under magnetic field in presence of peptide
T1 construct: purchased BD Bioscience; host or cells: rat tail (tissue-derived)
Text: High-resolution proton NMR spectroscopy is used to illustrate the behavior of the linker peptides […] (SEQ ID NO: 2 or gb1), […] (SEQ ID NO: 3 or trpzip6), […] (SEQ ID NO: 4 or trpzip5) and […] (SEQ ID NO: 5 or trpzip4) in aqueous solutions. The peptides were synthesized using standard Fmoc chemistry and purified by reverse-phase HPLC. Their identity was confirmed by mass-spectroscopy and NMR spectroscopy. For NMR studies, a volume of (400-X) μL of a peptide dissolved in pure water was mixed with 50 μL of a 10×PBS (phosphate-buffered saline) supplemented by sodium phosphate to a final concentration of 50 mM and with 50 μL of deuterated water (D2O) to form the reference sample (where X=0) and with a certain volume (X μL) of rat-tail collagen type I (at 3.6 to 4 mg/ml in 0.02 N acetic acid from BD Bioscience), (where X is adjusted to achieve the desired final concentration of collagen), with 50 μL of the 10× modified PBS and with 50 μL of deuterated water (D2O) to form the peptide-collagen complex. The pH value of the reference peptide samples was adjusted to match the pH of the final peptide-collagen complex in order to facilitate NMR spectral comparison.
The peptide-collagen solutions were subjected to gelation under magnetic field guidance (see Example 7) followed by the measurement of fibril alignment (Ma 2008) as a semi-quantitative indication of peptide-collagen binding. […]

T1 sequence (P02454 152-1207): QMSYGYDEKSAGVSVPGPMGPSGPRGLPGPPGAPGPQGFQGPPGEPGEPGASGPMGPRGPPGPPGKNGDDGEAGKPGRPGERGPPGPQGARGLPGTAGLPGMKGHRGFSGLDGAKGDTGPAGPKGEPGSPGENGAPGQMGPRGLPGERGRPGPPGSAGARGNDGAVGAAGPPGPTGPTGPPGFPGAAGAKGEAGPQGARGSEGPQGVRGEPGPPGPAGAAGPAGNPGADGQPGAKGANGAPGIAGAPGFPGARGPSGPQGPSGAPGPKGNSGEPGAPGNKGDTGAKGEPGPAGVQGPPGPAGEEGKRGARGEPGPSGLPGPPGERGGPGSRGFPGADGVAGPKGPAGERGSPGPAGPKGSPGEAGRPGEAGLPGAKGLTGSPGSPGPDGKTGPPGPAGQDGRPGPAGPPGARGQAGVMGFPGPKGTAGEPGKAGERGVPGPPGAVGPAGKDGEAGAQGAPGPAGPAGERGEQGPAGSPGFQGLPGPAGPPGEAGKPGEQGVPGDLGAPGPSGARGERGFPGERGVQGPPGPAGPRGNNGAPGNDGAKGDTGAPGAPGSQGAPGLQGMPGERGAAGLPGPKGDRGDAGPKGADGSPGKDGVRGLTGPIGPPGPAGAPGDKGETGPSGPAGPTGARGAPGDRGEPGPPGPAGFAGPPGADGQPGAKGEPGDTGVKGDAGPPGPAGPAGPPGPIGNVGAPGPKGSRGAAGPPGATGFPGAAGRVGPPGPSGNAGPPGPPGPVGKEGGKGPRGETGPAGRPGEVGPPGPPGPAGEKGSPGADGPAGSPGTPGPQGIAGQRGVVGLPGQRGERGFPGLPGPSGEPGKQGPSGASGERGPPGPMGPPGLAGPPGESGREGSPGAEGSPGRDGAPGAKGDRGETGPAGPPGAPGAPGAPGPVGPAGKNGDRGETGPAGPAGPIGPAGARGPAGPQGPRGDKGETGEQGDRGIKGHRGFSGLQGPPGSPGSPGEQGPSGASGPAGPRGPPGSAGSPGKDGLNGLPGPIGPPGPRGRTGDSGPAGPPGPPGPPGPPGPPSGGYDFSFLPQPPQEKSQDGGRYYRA
T1 sequence (P02466 86-1125): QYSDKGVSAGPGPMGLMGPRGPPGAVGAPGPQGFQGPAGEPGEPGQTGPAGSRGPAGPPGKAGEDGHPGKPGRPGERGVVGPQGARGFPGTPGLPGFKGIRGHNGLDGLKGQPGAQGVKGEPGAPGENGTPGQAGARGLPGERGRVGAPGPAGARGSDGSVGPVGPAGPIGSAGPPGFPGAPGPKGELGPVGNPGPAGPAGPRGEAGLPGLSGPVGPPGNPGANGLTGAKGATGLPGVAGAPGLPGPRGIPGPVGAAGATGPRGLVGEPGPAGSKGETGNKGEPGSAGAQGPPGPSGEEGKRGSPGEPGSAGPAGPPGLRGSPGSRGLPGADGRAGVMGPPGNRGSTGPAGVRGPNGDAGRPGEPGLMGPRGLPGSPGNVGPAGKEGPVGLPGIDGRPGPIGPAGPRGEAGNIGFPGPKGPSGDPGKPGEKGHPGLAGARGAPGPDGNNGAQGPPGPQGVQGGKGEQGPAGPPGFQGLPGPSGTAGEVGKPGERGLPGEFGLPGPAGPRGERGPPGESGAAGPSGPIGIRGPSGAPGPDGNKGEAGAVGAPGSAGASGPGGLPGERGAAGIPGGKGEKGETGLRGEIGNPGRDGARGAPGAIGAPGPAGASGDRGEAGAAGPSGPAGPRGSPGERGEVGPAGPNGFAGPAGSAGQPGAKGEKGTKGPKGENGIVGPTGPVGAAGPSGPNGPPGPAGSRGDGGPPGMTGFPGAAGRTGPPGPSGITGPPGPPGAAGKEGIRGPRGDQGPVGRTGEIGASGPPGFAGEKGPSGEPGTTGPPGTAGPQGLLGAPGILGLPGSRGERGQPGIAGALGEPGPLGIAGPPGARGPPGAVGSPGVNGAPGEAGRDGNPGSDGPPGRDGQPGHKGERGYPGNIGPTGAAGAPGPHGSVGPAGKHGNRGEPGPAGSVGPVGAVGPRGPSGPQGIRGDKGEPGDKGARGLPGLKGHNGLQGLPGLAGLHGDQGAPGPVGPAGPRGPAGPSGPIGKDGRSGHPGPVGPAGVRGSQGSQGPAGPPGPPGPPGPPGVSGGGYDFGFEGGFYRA

Row | Compound | pEC50 (pooled human plasma [1]) | pIC50 (thrombin) | reduction of thrombus weight, venous model [2] | clotting time (aPTT), systemic anticoagulant effect [3] | concentrations required in PT-APTT curves relative to MH2-GS (pooled human plasma [4]) | pIC50 (pooled human plasma [4]; 37° C., concentration that prolongs clotting time by 50%) | population of unfolded species, non-zero ΔCp taken into account ([5]; 21° C.) | population of unfolded species, non-zero ΔCp taken into account ([5]; 37° C.) | reduction of deuterium coupling constant (degree of collagen fibril alignment) (rat-tail collagen type I)
1 | CC[C@H](C)[C@H](N)C(=O)N[C@@H](CCCNC(=N)N)C(=O)N[C@@H](Cc1ccccc1)C(=O)N[C@H](C(=O)N[C@@H](CC(=O)O)C(=O)NCC(=O)N[C@@H](CCC(=O)O)C(=O)N[C@@H](Cc1c[nH]c2ccccc12)C(=O)N[C@H](C(=O)N[C@@H](Cc1ccc(O)cc1)C(=O)N[C@@H](CC(=O)O)C(=O)N[C@@H](CC(=O)O)C(=O)N[C@@H](C)C(=O)N[C@H](C(=O)N[C@@H](CCCCN)C(=O)N[C@H](C(=O)N[C@@H](Cc1ccccc1)C(=O)N[C@H](C(=O)N[C@@H](Cc1c[nH]c2ccccc12)C(=O)N[C@H](C(=O)N[C@@H](CCC(=O)O)C(=O)NCC(=O)N[C@@H](CC(=O)O)C(=O)N[C@@H](Cc1ccccc1)C(=O)N[C@@H](CCC(=O)O)C(=O)N[C@@H](CCC(=O)O)C(=O)N[C@H](C(=O)N1CCC[C@H]1C(=O)N[C@@H](CCC(=O)O)C(=O)N[C@@H](CCC(=O)O)C(=O)N[C@@H](Cc1ccc(O)cc1)C(=O)N[C@@H](CC(C)C)C(=O)N[C@@H](CCC(N)=O)C(=O)O)[C@@H](C)CC)[C@@H](C)O)[C@@H](C)O)[C@@H](C)O)[C@@H](C)O)[C@@H](C)O)[C@@H](C)O [MH2-wZIP5] | 5.70 | 6.97 | comparable to MH2-wZIP4 | only a slight prolongation of the clotting time (aPTT) | about 2.5 times | > 6.52 |  |  | 
2 | GEWTYDDATKTFTVTE (not fully specified (C-terminus)) [gb1] |  |  |  |  |  |  | 0.7 | 0.85 | not significantly affected
